Results taken from EP0326329B1, “Quinazoline derivatives useful as insecticides” (Dow AgroSciences LLC, priority 1988, dated 1989).

Experiments:
Assay type in all cases: in vivo
[1] = system: southern armyworm (Spodopetra eridania Cramer); experiment: Mite/insect screen, sprayed squash leaves (SAW); settings: Spodoptera eridania, percent mortality, read-out: SAW RESULTS %; for mortality at 200 ppm: spray rate 200 ppm; for mortality at 400 ppm: spray rate 400 ppm
Experimental: (§1) The compounds of Examples 1-203 were tested for miticidal and insecticidal activity in the following mite/insect screen.
(§2) Each test compound was formulated by dissolving the compound in acetone/alcohol (50:50) mixture containing 23 g of "TOXIMUL R" (sulfonate/nonionic emulsifier blend) and 13 g of "TOXIMUL S" (sulfonate/nonionic emulsifier blend) per liter. These mixtures were then diluted with water to give the indicated concentrations.
(§3) Other plants in the same treatment pot were left uninfested. The leaves were then sprayed with 5 ml of test solution using a DeVilbiss atomizing sprayer at 10 psi. Both surfaces of the leaves were covered until runoff, and then allowed to dry for one hour. Two uninfested leaves were then excised and placed into a Petri dish containing larval southern armyworm (Spodopetra eridania Cramer).
(§4) After standard exposure periods, percent mortality and phytotoxicity were evaluated. […]

[2] = system: Puccinia recondita tritici (leaf rust); experiment: Greenhouse Test 1, foliar spray fungicide screen (LEAF RUST), host wheat; settings: disease control rating, 400 ppm (+++ at 100 ppm)
[3] = system: Pyricularia oryzae (rice blast); settings: disease control rating, foliar spray, host rice; 400 ppm (+++ at 100 ppm)
[4] = system: Erysiphe graminis tritici (powdery mildew); experiment: Greenhouse Test 1, foliar spray fungicide screen (POWD MDEW), host wheat; settings: disease control rating, 400 ppm (+++ at 100 ppm)
[5] = system: Botrytis cinerea (gray mold); experiment: Greenhouse Test 1, foliar spray fungicide screen (GRAY MOLD), host grape berries; settings: disease control rating, 400 ppm (+++ at 100 ppm)
[6] = system: Twospotted spider mites (Tetranychus urticae Koch); experiment: Mite/insect screen, sprayed squash cotyledons (SM); settings: Tetranychus urticae, percent mortality, read-out: SM RESULTS %; for mortality at 400 ppm: spray rate 400 ppm; for mortality at 200 ppm: spray rate 200 ppm
Experimental: as §1, §2, §3, §4

[7] = system: Southern corn rootworm (Diabrotica undecimpuctata howardi Barber); experiment: Mite/insect screen, soil treatment (CRW); settings: Diabrotica, percent mortality, soil treatment, read-out: CRW RESULTS %; for mortality at 12 ppm: CRW rate 12.00 ppm; for mortality at 24 ppm: CRW rate 24.00 ppm
Experimental: as §1, §2
Activity on Southern corn rootworm (Diabrotica undecimpuctata howardi Barber) was evaluated by adding two ml of tap water, a presoaked corn seed, and 15 g of dry sandy soil to a one ounce plastic container. The soil was treated with 1 mL of test solution containing a pre-determined concentration of test compound. After six to 12 hours of drying, five 2-3 instar corn rootworm larvae were added to the individual cups, which were then capped and held at 23°C.
as §4

[8] = system: melon aphids (Aphis gossypii Glover); experiment: Mite/insect screen, sprayed squash cotyledons (MA); settings: Aphis gossypii, percent mortality, read-out: MA RESULTS %; for mortality at 200 ppm: spray rate 200 ppm; for mortality at 400 ppm: spray rate 400 ppm
Experimental: as §1, §2, §3, §4

[9] = system: Pseudoperonospora cubensis (downy mildew); experiment: Greenhouse Test 1, foliar spray fungicide screen (DOWN MDEW), host squash; settings: disease control rating, 400 ppm (+++ at 100 ppm)

| SMILES | mortality at 200 ppm [1] [%] | mortality at 400 ppm [1] [%] | LEAF RUST [2] | RICE BLAST [3] | POWD MDEW [4] | GRAY MOLD [5] | mortality at 400 ppm [6] [%] | mortality at 12 ppm [7] [%] | mortality at 24 ppm [7] [%] | mortality at 200 ppm [8] [%] | mortality at 400 ppm [8] [%] | DOWN MDEW [9] | mortality at 200 ppm [6] [%] |
| --- | --- | --- | --- | --- | --- | --- | --- | --- | --- | --- | --- | --- | --- |
| Fc1ccc(-c2ccc(CCOc3ncnc4ccccc34)cc2)cc1 [Example 144, 4-[2-(4'-fluoro-1,1'-biphenyl)-4-ylethoxy]quinazoline] | 40 | 0 | +++ (+++ = 90-100% control at 100 ppm) | +++ (+++ = 90-100% control at 100 ppm) | +++ (+++ = 90-100% control at 100 ppm) | - (- = 0-19% control at 400 ppm) | 100 | 100 | 40 | 60 | 100 | +++ (+++ = 90-100% control at 100 ppm) | – |
| c1ccc(Oc2ccc(CCOc3ncnc4ccccc34)cc2)cc1 [Example 69, 4-[2-(4-phenoxyphenyl)ethoxy]quinazoline] | – | 100 | +++ (+++ = 90-100% control at 100 ppm) | +++ (+++ = 90-100% control at 100 ppm) | +++ (+++ = 90-100% control at 100 ppm) | - (- = 0-19% control at 400 ppm) | 100 | – | 0 | – | 0 | +++ (+++ = 90-100% control at 100 ppm) | – |
| FC(F)(F)c1cccc(C(F)(F)F)c1CCOc1ncnc2ccccc12 [Example 145, 4-[2-[2,6-bis(trifluoromethyl)phenyl]ethoxy]quinazoline] | 0 | 0 | + (+ = 20-89% control at 400 ppm) | +++ (+++ = 90-100% control at 100 ppm) | + (+ = 20-89% control at 400 ppm) | - (- = 0-19% control at 400 ppm) | 0 | 0 | 0 | 80 | 80 | ++ (++ = 90-100% control at 400 ppm) | 80 |
| CCc1ccc(CCOc2ncnc3ccccc23)cc1 [Example 65, 4-[2-(4-ethylphenyl)ethoxy]quinazoline] | – | 0 | +++ (+++ = 90-100% control at 100 ppm) | +++ (+++ = 90-100% control at 100 ppm) | +++ (+++ = 90-100% control at 100 ppm) | - (- = 0-19% control at 400 ppm) | 100 | – | 0 | – | 100 | +++ (+++ = 90-100% control at 100 ppm) | – |
| Fc1cccc2c(OCCc3ccc(C(F)(F)F)cc3)ncnc12 [Example 118, 8-fluoro-4-[2-(4-trifluoromethyl)ethoxy]quinazoline] | 60 | 100 | +++ (+++ = 90-100% control at 100 ppm) | +++ (+++ = 90-100% control at 100 ppm) | +++ (+++ = 90-100% control at 100 ppm) | - (- = 0-19% control at 400 ppm) | 0 | 0 | 0 | 100 | 0 | +++ (+++ = 90-100% control at 100 ppm) | 100 |
| c1ccc(CCCCOc2ncnc3ccccc23)cc1 [Example 42, 4-(4-phenylbutoxy)quinazoline] | 0 | 50 | +++ (+++ = 90-100% control at 100 ppm) | +++ (+++ = 90-100% control at 100 ppm) | +++ (+++ = 90-100% control at 100 ppm) | - (- = 0-19% control at 400 ppm) | 100 | 0 | 0 | 100 | 100 | +++ (+++ = 90-100% control at 100 ppm) | 100 |
| Fc1cccc2c(OCCc3cccc(Oc4ccccc4)c3)ncnc12 [Example 163, 8-fluoro-4-[2-(3-phenoxyphenyl)ethoxy]quinazoline] | 80 | 40 | +++ (+++ = 90-100% control at 100 ppm) | +++ (+++ = 90-100% control at 100 ppm) | +++ (+++ = 90-100% control at 100 ppm) | - (- = 0-19% control at 400 ppm) | 20 | 0 | 0 | 80 | 80 | +++ (+++ = 90-100% control at 100 ppm) | 0 |
| Fc1ccc(CCOc2ncnc3c(F)cccc23)c(F)c1 [Example 159, 8-fluoro-4-[2-(2,4-difluorophenyl)ethoxy]quinazoline] | 0 | 0 | +++ (+++ = 90-100% control at 100 ppm) | +++ (+++ = 90-100% control at 100 ppm) | +++ (+++ = 90-100% control at 100 ppm) | - (- = 0-19% control at 400 ppm) | 80 | 0 | 0 | 80 | 100 | +++ (+++ = 90-100% control at 100 ppm) | 90 |
| COc1ccc(CCOc2ncnc3ccccc23)cc1OC [Example 73, 4-[2-(3,4-dimethoxyphenyl)ethoxy]quinazoline] | – | 0 | +++ (+++ = 90-100% control at 100 ppm) | - (- = 0-19% control at 400 ppm) | ++ (++ = 90-100% control at 400 ppm) | - (- = 0-19% control at 400 ppm) | 0 | – | 100 | – | 0 | +++ (+++ = 90-100% control at 100 ppm) | – |
| CC(C)(C)c1ccc(CCOc2ncnc3cc(Cl)ccc23)cc1 [Example 136, 7-chloro-4-[2-[4-(1,1-dimethylethyl)phenyl]ethoxy]quinazoline] | 100 | 0 | - (- = 0-19% control at 400 ppm) | - (- = 0-19% control at 400 ppm) | - (- = 0-19% control at 400 ppm) | - (- = 0-19% control at 400 ppm) | 0 | 0 | 0 | 0 | 0 | - (- = 0-19% control at 400 ppm) | 0 |
| CC(C)c1ccc(CCCCOc2ncnc3ccccc23)cc1 [Example 168, 4-[4-[4-(i-propyl)phenyl]butoxy]quinazoline] | 0 | 0 | + (+ = 20-89% control at 400 ppm) | +++ (+++ = 90-100% control at 100 ppm) | +++ (+++ = 90-100% control at 100 ppm) | - (- = 0-19% control at 400 ppm) | 0 | 0 | 0 | 0 | 80 | ++ (++ = 90-100% control at 400 ppm) | 0 |
| CC(C)c1ccc(CCNc2ncnc3c(F)cccc23)cc1 [Example 96, 8-fluoro-N-[2-[4-(i-propyl)phenyl]ethyl]-4-quinazolinamine] | 100 | 100 | +++ (+++ = 90-100% control at 100 ppm) | +++ (+++ = 90-100% control at 100 ppm) | +++ (+++ = 90-100% control at 100 ppm) | - (- = 0-19% control at 400 ppm) | 0 | 0 | 0 | 50 | 0 | +++ (+++ = 90-100% control at 100 ppm) | 50 |
